This is an account of results in ChEMBL document CHEMBL3045183, “Bioefficacy of violacein against Asian armyworm Spodoptera litura Fab. (Lepidoptera: Noctuidae)” (2012).

Assay [1] has as its system Spodoptera litura. The experiment in a line: Larvicidal activity Spodoptera litura third-instar larva fed on 250 ppm compound pre-treated castor leaf disks for 24 hr followed by larval maintenance on fresh castor leaves assessed as insect mortality measured after 96 hr. The format is functional.
In assay [2] the test system is Spodoptera litura. The experiment in a line: Antifeedant activity against Spodoptera litura third-instar larva fed on 1000 ppm compound pre-treated castor leaf disks measured after 24 hr by leaf-disk no-choice method (reference value: 2.09 +/- 0.94%). The format is functional.
For assay [3], the system named is Spodoptera litura. The experiment in a line: Larvicidal activity Spodoptera litura third-instar larva fed on 500 ppm compound pre-treated castor leaf disks for 24 hr followed by larval maintenance on fresh castor leaves assessed as insect mortality measured after 96 hr. It is filed as functional.
Assay [4] concerns Helicoverpa armigera. Nature of the assay: Antifeedant activity against Helicoverpa armigera at 1000 ppm. It is filed as functional.
Assay [5] has as its system Spodoptera litura. Nature of the assay: Insecticidal activity Spodoptera litura third-instar larva fed on 500 ppm compound pre-treated castor leaf disks for 24 hr followed by larval maintenance on fresh castor leaves assessed as total mortality (reference value: 8%). It is filed as functional.
For assay [6], the system named is Spodoptera litura. The experiment in a line: Antifeedant activity against Spodoptera litura third-instar larva fed on 125 ppm compound pre-treated castor leaf disks measured after 24 hr by leaf-disk no-choice method (reference value: 2.09 +/- 0.94%). It is filed as functional.
Assay [7] concerns Spodoptera litura. Nature of the assay: Larvicidal activity Spodoptera litura third-instar larva fed on compound pre-treated castor leaf disks for 24 hr followed by larval maintenance on fresh castor leaves assessed as insect mortality measured after 96 hr. It is filed as functional. The following applies: for LC50: Spodoptera litura, foliar.
Assay [8] has as its system Spodoptera litura. Nature of the assay: Insecticidal activity Spodoptera litura third-instar larva fed on 250 ppm compound pre-treated castor leaf disks for 24 hr followed by larval maintenance on fresh castor leaves assessed as total mortality (reference value: 8%). It is filed as functional.
The test system of assay [9] is Spodoptera litura. Nature of the assay: Larvicidal activity Spodoptera litura third-instar larva fed on 125 ppm compound pre-treated castor leaf disks for 24 hr followed by larval maintenance on fresh castor leaves assessed as insect mortality measured after 96 hr. The format is functional.
In assay [10] the test system is Spodoptera litura. The experiment in a line: Pupicidal activity Spodoptera litura third-instar larva fed on 500 ppm compound pre-treated castor leaf disks for 24 hr followed by larval maintenance on fresh castor leaves until pupae formation assessed as pupal mortality (reference value: 8.0 +/- 4.47%). It is filed as functional.
In assay [11] the test system is Spodoptera litura. The experiment in a line: Antifeedant activity against Spodoptera litura third-instar larva fed on 250 ppm compound pre-treated castor leaf disks measured after 24 hr by leaf-disk no-choice method (reference value: 2.09 +/- 0.94%). It is filed as functional.
Assay [12] relates to Spodoptera litura. Nature of the assay: Pupicidal activity Spodoptera litura third-instar larva fed on 1000 ppm compound pre-treated castor leaf disks for 24 hr followed by larval maintenance on fresh castor leaves until pupae formation assessed as pupal mortality (reference value: 8.0 +/- 4.47%). It is filed as functional.
The test system of assay [13] is Spodoptera litura. The experiment in a line: Insecticidal activity Spodoptera litura third-instar larva fed on 1000 ppm compound pre-treated castor leaf disks for 24 hr followed by larval maintenance on fresh castor leaves assessed as induction of abnormalities. The format is functional, organism-based.
Assay [14] has as its system Spodoptera litura. The experiment in a line: Insecticidal activity Spodoptera litura third-instar larva fed on 125 ppm compound pre-treated castor leaf disks for 24 hr followed by larval maintenance on fresh castor leaves assessed as total mortality (reference value: 8%). The format is functional.
Assay [15] deals with Spodoptera litura. The experiment in a line: Insecticidal activity Spodoptera litura third-instar larva fed on 1000 ppm compound pre-treated castor leaf disks for 24 hr followed by larval maintenance on fresh castor leaves assessed as total mortality (reference value: 8%). The format is functional.
The subject of assay [16] is Spodoptera litura. Nature of the assay: Larvicidal activity Spodoptera litura third-instar larva fed on 1000 ppm compound pre-treated castor leaf disks for 24 hr followed by larval maintenance on fresh castor leaves assessed as insect mortality measured after 96 hr. It is filed as functional.
For assay [17], the system named is Spodoptera litura. The experiment in a line: Pupicidal activity Spodoptera litura third-instar larva fed on 125 ppm compound pre-treated castor leaf disks for 24 hr followed by larval maintenance on fresh castor leaves until pupae formation assessed as pupal mortality (reference value: 8.0 +/- 4.47%). It is filed as functional.
Assay [18] concerns Spodoptera litura. The experiment in a line: Antifeedant activity against Spodoptera litura third-instar larva fed on compound pre-treated castor leaf disks measured after 24 hr by leaf-disk no-choice method (reference value: 2.09 +/- 0.94%). The format is functional. The conditions noted are these: for LC50: Spodoptera litura, foliar.
Assay [19] has as its system Spodoptera litura. The experiment in a line: Antifeedant activity against Spodoptera litura third-instar larva fed on 500 ppm compound pre-treated castor leaf disks measured after 24 hr by leaf-disk no-choice method (reference value: 2.09 +/- 0.94%). It is filed as functional.
Assay [20] deals with Spodoptera litura. Nature of the assay: Pupicidal activity Spodoptera litura third-instar larva fed on 250 ppm compound pre-treated castor leaf disks for 24 hr followed by larval maintenance on fresh castor leaves until pupae formation assessed as pupal mortality (reference value: 8.0 +/- 4.47%). The format is functional.
The test system of assay [21] is Chironomus riparius. The experiment in a line: Larvicidal activity against Chironomus riparius. The format is functional.

Converted amounts (≈) assume the structure as drawn. The source made the active and inactive calls. The calls are words filed in the database; no cut-off is given here.

The mortality is the share of the test organisms that died. The LC50 is the concentration lethal to half of the exposed cells or organisms. For `O=C1NC(c2c[nH]c3ccc(O)cc23)=C/C1=C1\C(=O)Nc2ccccc21` [VIOLACEIN], the mortality in [1] came out at 53.99%; in assay [3] it was 68.88%; in [5], 89.58%; in assay [8] it was 77.99%; in [9], 29.11%; in assay [10], 20.7%. The mortality is listed as 22% in assay [12]; 51.11% in assay [14]; 99.1% in assay [15]; 77.1% in [16]; 22% in assay [17]; 24% in [20]. Further, the AFI in [2] is 72.46%; in assay [4], above 80%; in [6], 28.66%; in [11], 39.69%; in assay [19], 55.16%. The LC90 worked out at 2016.71 ppm in assay [7] and 3649.91 ppm in assay [18]. In addition, the median lethal concentration (LC50) in [7] amounted to 255 mg/L (≈ 743 µM); in [18], 392 mg/L (≈ 1140 µM). Besides, the outcome in assay [13] was Active.

For the compound `[C-]#[N+][C@@H]1[C@H]2c3c[nH]c4cccc(c34)C(C)(C)[C@H]2CC[C@@]1(C)C=C` [12-EPI-HAPALINDOLE J ISONITRILE], in [21], the Activity was 100%.

Turning to `C/C=C(\C)C(=O)O[C@H]1C[C@@H](OC(C)=O)[C@@]2(C(=O)OC)CO[C@H]3[C@@H](O)[C@@](C)([C@]45O[C@@]4(C)[C@@H]4C[C@H]5O[C@@H]5OC=C[C@@]54O)[C@H]4[C@]1(CO[C@]4(O)C(=O)OC)[C@@H]32` [AZADIRACHTIN A], the mortality in assay [1] was 70.21%; in assay [3] it was 93.55%; in [8], 98.28%; in assay [9], 57.33%; in assay [14], 85.33%; in [16], 100%. For the same compound, the mortality in assay [17] and in assay [20] was 28% throughout. Moreover, the AFI came to 79.41% in [2], 49.67% in [6], 61.31% in [11] and 70.49% in assay [19]. For the same compound, the results for the LC90 in [7] and in [18] were 412.78 ppm and 3278.46 ppm, respectively. Moreover, the figures for the LC50 in assay [7] and in assay [18] were 119 mg/L (≈ 165 µM) and 134 mg/L (≈ 186 µM), respectively.
